Data from paper PMC7598997, “Synthesis and evaluation of anticancer activities of 2- or 4-substituted 3-(N-benzyltriazolylmethyl)-13α-oestrone derivatives” (Journal of Enzyme Inhibition and Medicinal Chemistry, 2020).

Tests used:
tested cell lines = test system: tested cell lines; parameters: method as in PMID 27263437; settings: described earlier ref 16; cited from earlier work
[1] = target: 17β-hydroxysteroid dehydrogenase 1, 17β-HSD1; settings: read-out: 17β-HSD1 inhibition IC50; cited from earlier work
steroid sulfatase, STS = test system: steroid sulfatase, STS; parameters: method as in PMID 30230387; settings: cited from earlier work
OATP2B1 = test system: OATP2B1; parameters: method as in PMID 30498534; settings: read-out: OATP2B1 inhibition IC50; cited from earlier work
tubulin [2] = settings: cited from earlier work
HeLa cells [3] = test system: HeLa cells; parameters: method as in PMID 27363663; settings: HeLa cells ref 15; cited from earlier work
HeLa cells [4] = test system: HeLa cells; parameters: method as in PMID 27363663; settings: HeLa cells ref 15; cited from earlier work; remark: listed apart in the source
A2780 cells = assay: MTT antiproliferative assay, A2780; type: cell-based, human; settings: Homo sapiens, MTT
Procedure: (§1) The antiproliferative properties of the newly synthesised triazoles (11a,b–15a,b) were determined on a panel of human adherent cancer cell lines of gynaecological origin. MCF-7 and MDA-MB-231 were isolated from breast cancers differing in biochemical background, while A2780 cells were isolated from ovarian cancer. The cancer selectivity of compound 12a was tested on the non-cancerous mouse embryo fibroblast cell line NIH/3T3. All cell lines were purchased from European Collection of Cell Cultures (ECCAC, Salisbury, UK). Cells were cultivated in minimal essential medium supplemented with 10% foetal bovine serum, 1% non-essential amino acids and an antibiotic–antimycotic mixture. All media and supplements were obtained from Lonza Group Ltd., Basel, Switzerland. Near-confluent cancer cells were seeded onto a 96-well microplate (5000 cells/well) and, after overnight standing, 200 µL new medium, containing the tested compounds at 10 and 30 µM, was added. After incubation for 72 h at 37 °C in humidified air containing 5% CO2, the living cells were assayed by the addition of 20 µL of 5 mg/ml 3-(4,5-dimethylthiazol-2-yl)-2,5-diphenyltetrazolium bromide (MTT) solution. MTT was converted by intact mitochondrial reductase and precipitated as purple crystals during a 4-h contact period. The medium was next removed and the precipitated formazan crystals were dissolved in 100 µL of DMSO during a 60-min period of shaking at 37 ^оC.
(§2) Finally, the reduced MTT was assayed at 545 nm, using a microplate reader utilising wells with untreated cells serving as control. […] All in vitro experiments were carried out on two microplates with at least five parallel wells. Stock solutions of the tested substances (10 mM) were prepared in DMSO. […] Cisplatin (Ebewe Pharma GmbH, Unterach, Austria) was used as positive control.

MDA-MB-231 cells = assay: MTT antiproliferative assay, MDA-MB-231; type: cell-based, human; settings: Homo sapiens, MTT
Procedure: as §1, §2

MCF-7 cells = assay: MTT antiproliferative assay, MCF-7; type: cell-based, human; settings: Homo sapiens, MCF7, MTT
Procedure: as §1, §2

[5] = test system: non-cancerous mouse embryo fibroblast cell line NIH/3T3; assay: MTT assay for cancer selectivity, NIH/3T3; type: cell-based
Procedure: as §1, §2

tubulin [6] = assay: cell-free in vitro tubulin polymerisation assay; type: biochemical; settings: vs untreated control
Procedure: The effect of brominated triazole (12a) on tubulin polymerisation was tested with the HTS-Tubulin Polymerisation Assay Biochem Kit (Bio-Kasztel Ltd., Budapest, Hungary) according to the manufacturer’s recommendations. Briefly, 10 µl of a 0.125 or 0.25 mM solution of the test compound (12a) was placed on a prewarmed (37 °C), UV-transparent microplate. About 10 µl 10 µM paclitaxel and 10 µl General Tubulin Buffer were used as positive and negative control, respectively. 100 µl 3.0 mg/ml tubulin in 80 mM PIPES pH 6.9, 2 mM MgCl2, 0.5 mM EGTA, 1 mM GTP was added to each sample, and the microplate was immediately placed into a prewarmed (37 °C) UV-spectrophotometer (SpectoStarNano, BMG Labtech, Ortenberg, Germany) to start the recording reaction. A 60-min kinetic measurement protocol was applied to determine the absorbance of the reaction solution per minute at 340 nm. For the evaluation of the experimental data, the maximum reaction rate (Vmax: Δabsorbance/min) was calculated. Moving averages of absorbances determined at three consecutive timepoints were calculated and the highest difference between two succeeding moving averages was taken as the Vmax of the tested compound in the tubulin polymerisation reaction. Each sample was prepared in two parallels and the measurements were repeated twice. For statistical evaluation, Vmax data were analysed by the one-way ANOVA test with the Newmann–Keuls post-test by using Prism 4.01 software (GraphPad Software, San Diego, CA).

A2780 cell line = test system: A2780 cell line; parameters: method as in PMID 27263437; settings: described earlier ref 16; cited from earlier work
MCF-7 cell line = test system: MCF-7 cell line; parameters: method as in PMID 27263437; settings: described earlier ref 16; cited from earlier work

In the case of CC(C)(C)c1ccc(Cn2cc(COc3ccc4c(c3)CC[C@@H]3[C@@H]4CC[C@@]4(C)C(=O)CC[C@@H]34)nn2)cc1 [Compound 4b, 3-[{1-(4-tert-butylbenzyl)-1H-1,2,3-triazol-4-yl}methoxy]-13α-estra-1,3,5(10)-trien-17-one], the “influence on the growth of the tested cell lines” value (tested cell lines) is listed as “did not have marked influence on the growth”.
In the case of C[C@@]12CC[C@@H]3c4ccc(O)c(Br)c4CC[C@H]3[C@@H]1CCC2=O [Compound 6], the IC50 [1] is given as ~1 µM and the STS inhibition (steroid sulfatase, STS) is given as “dual STS and 17β-HSD1 inhibition”.
In the case of CCOP(=O)(OCC)c1cc2c(cc1OCc1ccccc1)CC[C@@H]1[C@@H]2CC[C@@]2(C)C(=O)CC[C@@H]12 [Compound 8], the IC50 (OATP2B1) is given as 0.2 µM.
For CCC[C@H]1[C@@H]2CCc3cc(OCc4cn(Cc5ccccc5)nn4)ccc3[C@H]2CC[C@]1(C)CO [Compound 3], the “maximum rate of microtubule formation” value (tubulin [2]) is given as “significantly increases the maximum rate of microtubule formation”, the cell cycle effect (HeLa cells [3]) is given as “cell cycle arrest at G2/M” and the migration and invasion (HeLa cells [4]) is given as “inhibits the migration and invasion”.
For CCOP(=O)(OCC)c1cc2c(cc1O)CC[C@@H]1[C@@H]2CC[C@@]2(C)C(=O)CC[C@@H]12 [Compound 7], the IC50 [1] is listed as 1 to 2 µM and the IC50 (OATP2B1) is listed as 1 to 2 µM.
In the case of COc1cc2c(cc1O)CC[C@@H]1[C@@H]2CC[C@]2(C)[C@@H](O)CC[C@@H]12 [2-methoxyestradiol], the “effect on tubulin polymerisation” value (tubulin [2]) is listed as “inhibit tubulin polymerisation”.
For C[C@@]12CC[C@@H]3c4cc(Br)c(O)cc4CC[C@H]3[C@@H]1CCC2=O [Compound 5], the IC50 [1] is listed as ~1 µM.
For C[C@@]12CC[C@@H]3c4ccc(OCc5cn(Cc6ccccc6)nn5)c(Br)c4CC[C@H]3[C@@H]1CCC2=O [Compound 12a, 3-[{1-benzyl-1H-1,2,3-triazol-4-yl}methoxy]-4-bromo-13α-estra-1,3,5(10)-trien-17-one], the inhibition at 10 µM (A2780 cells; A2780, 10 µM, 72 h, read-out: Inhibition (%) ± SEM) was 93.16 ± 0.47%, the inhibition at 30 µM (A2780 cells; A2780, 30 µM, 72 h, read-out: Inhibition (%) ± SEM) was 95.43 ± 0.42% and the IC50 (A2780 cells; A2780, 72 h, read-out: calculated IC50) was 0.55 µM. It also gave an inhibition at 10 µM (MDA-MB-231 cells; MDA-MB-231, 10 µM, 72 h, read-out: Inhibition (%) ± SEM) of 52.9 ± 1.32%, an inhibition at 30 µM (MDA-MB-231 cells; MDA-MB-231, 30 µM, 72 h, read-out: Inhibition (%) ± SEM) of 53.8 ± 2.43% and an IC50 (MDA-MB-231 cells; MDA-MB-231, 72 h, read-out: calculated IC50) of 8.8 µM. It also gave an inhibition at 10 µM (MCF-7 cells; MCF-7, 10 µM, 72 h, read-out: Inhibition (%) ± SEM) of 42 ± 0.97%, an inhibition at 30 µM (MCF-7 cells; MCF-7, 30 µM, 72 h, read-out: Inhibition (%) ± SEM) of 52.5 ± 0.94% and an IC50 (MCF-7 cells; MCF-7, 72 h, read-out: calculated IC50) of 12.7 µM. For the same molecule, the inhibition at 10 µM ([5]; NIH3T3, NIH/3T3, 10 µM, MTT, read-out: inhibition of cell growth) was 28.7 ± 1.26%, the inhibition at 30 µM ([5]; NIH3T3, NIH/3T3, 30 µM, MTT, read-out: inhibition of cell growth) was 37.9 ± 0.75% and the IC50 ([5]; NIH3T3, NIH/3T3, MTT) was > 30 µM. The “maximum rate of tubulin polymerisation (Vmax)” value (tubulin [6]; 125 µM test compound) was “increased”, the “maximum rate of tubulin polymerisation (Vmax)” value (tubulin [6]; 250 µM test compound) was “increased by our test compound which was significant” and the melting point was 188 to 190 °C.
For C[C@@]12CC[C@@H]3c4ccc(OCc5cn(Cc6ccccc6)nn5)cc4CC[C@H]3[C@@H]1CCC2=O [Compound 4a, 3-[{1-benzyl-1H-1,2,3-triazol-4-yl}methoxy]-13α-estra-1,3,5(10)-trien-17-one], the IC50 (A2780 cell line) is given as 0.5 to 0.6 µM and the IC50 (MCF-7 cell line) is given as 0.5 to 0.6 µM.
